Results published in ChEMBL document CHEMBL5518199, “Discovery of Effective Dual PROTAC Degraders for Neurodegenerative Disease-Associated Aggregates” (J Med Chem, 2024).

Legend:
[1] = in vivo; settings: rat, iv, 8 mg/kg
[2] = in vitro; settings: C57BL/6, mouse, plasma
[3] = in vivo; settings: C57BL/6, mouse, plasma, iv, 8 mg/kg
[4] = in vivo; settings: C57BL/6, mouse, plasma, iv, 8 mg/kg; remark: listed apart in the source
[5] = in vivo; settings: rat, iv, 8 mg/kg; remark: listed apart in the source
[6] = in vivo; settings: C57BL/6, mouse, plasma, iv, 8 mg/kg; remark: listed apart in the source
[7] = in vivo; settings: C57BL/6, mouse, brain, iv, 8 mg/kg
[8] = in vivo; settings: C57BL/6, mouse, iv, 8 mg/kg
[9] = in vivo; settings: C57BL/6, mouse, iv, 8 mg/kg; remark: listed apart in the source
[10] = in vivo; settings: C57BL/6, mouse, brain, iv, 8 mg/kg; remark: listed apart in the source
[11] = in vivo; settings: C57BL/6, mouse, iv, 8 mg/kg; remark: listed apart in the source
[12] = in vivo; settings: C57BL/6, mouse, brain, iv, 8 mg/kg; remark: listed apart in the source
[13] = in vivo; settings: rat, iv, 8 mg/kg; remark: listed apart in the source
[14] = in vivo; settings: C57BL/6, mouse, iv, 8 mg/kg; remark: listed apart in the source
[15] = in vitro; settings: C57BL/6, mouse, brain
[16] = in vivo; settings: C57BL/6, mouse, brain, iv, 8 mg/kg; remark: listed apart in the source
[17] = in vivo; settings: rat, iv, 8 mg/kg; remark: listed apart in the source
[18] = in vivo; settings: rat, iv, 8 mg/kg; remark: listed apart in the source

half-life at 24 h [1]: 3.78 h
fraction unbound at 24 h [2]: 0.442
concentration at 0.25 h [3]: 67.2 µM
half-life at 24 h [4]: 3.24 h
AUC(0-inf) at 24 h [5]: 65.5 µM·h
AUC at 24 h [6]: 109 µM·h
AUC at 24 h [7]: 6.02 µM·h
clearance at 24 h [8]: 0.101 L/h/kg
Vd at 24 h [9]: 0.48 L/kg
concentration at 168.25 h [10]: 2.7 µM
AUC(0-t) at 24 h [11]: 109 µM·h
half-life at 24 h [12]: 4.21 h
Vd at 24 h [13]: 0.92 L/kg
AUC(0-inf) at 24 h [14]: 109 µM·h
fraction unbound at 24 h [15]: 0.397
concentration at 0.25 h [16]: 1.73 µM
clearance at 24 h [17]: 0.12 L/h/kg
AUC(0-t) at 24 h [18]: 65.4 µM·h
SMILES: Cc1ccc2nc(-c3ccc(NCCOCCOCCOCCNC(=O)COc4cccc5c4C(=O)N(C4CCC(=O)NC4=O)C5=O)cc3)sc2c1 (stereo not drawn)
